In data set [1] the target is T1, human recombinant β2 adrenergic receptor (Homo sapiens, UniProt P07550).
T1 construct: expressed in transfected cells; host or cells: CHO
The data set can be described thus: β2-adrenergic receptor binding assay (CHO expressing cells). As for the experimental part:
For hERG study, HEK293 cells were cultured (1–7 days) in DMEM/GlutaMax-1 + 10% FBS and were plated on collagen-coated dishes (about 2×10^4 cells/dish). The cell was held at -80 mV. A 50-millisecond pulse to -40 mV was delivered to measure the leaking currents, which were subtracted from the tail currents online. […] This paradigm was delivered once every 5 seconds to monitor the current amplitude. After the current amplitude stabilized, the test compound was delivered to the extracellular medium by a rapid solution changer perfusion system. During perfusion, the cell was repetitively stimulated with the protocol described above, and the current amplitude was continuously monitored. Data were acquired and analyzed by using pClamp (Axon Instruments), and Excel (Microsoft), and are reported as mean and individual values. The degree of inhibition (%) was obtained by measuring the tail current amplitude before and after drug superfusion (the difference current was normalized to control and multiplied by 100 to obtain the percent of inhibition). […] The concentration-response relationship of each compound was constructed from the percentage reductions of current amplitude by sequential concentrations. β2-adrenergic receptor CHO expressing cells were used for the receptor inhibition assay as described. The results are expressed as a percent of inhibition of control specific binding (100 - (measured specific binding/control specific binding) × 100)) obtained in the presence of the test compounds. The specific ligand binding to the receptors is defined as the difference between the total binding and the nonspecific binding determined in the presence of an excess of unlabelled ligand. All the in-vivo experiments were carried out at the Regina Elena Cancer Institute.
Inhibition of receptor was reported as inhibition of control specific binding (100 - (measured specific binding/control specific binding) × 100) obtained in the presence of the test compounds.

Another data set addresses T2, M1 muscarinic receptor (Homo sapiens, UniProt P11229).
T2 construct: purchased Cerep (ExpresSProfile screen, contract service)
The data set can be described thus: Cerep ExpresSProfile receptor screen, M1. The note with it: data not shown, read-out: % inhibition of ligand binding, M1 muscarinic receptor. The protocol:
(§1) To investigate the molecular bases of cardio toxicity, the agent was tested for its potential to interact with a panel of 54 pharmacological receptors, the majority being human recombinant receptors (Cerep ExpresSProfile screen) (http://www.cerep.fr).

The target in another data set is T3, M2 muscarinic receptor (Homo sapiens, UniProt P08172).
T3 construct: purchased Cerep (ExpresSProfile screen, contract service)
The data set can be described thus: Cerep ExpresSProfile receptor screen, M2. The note with it: data not shown, read-out: % inhibition of ligand binding, M2 muscarinic receptor. The protocol:
as §1

For the next data set, the target named is T4, M3 muscarinic receptor (Homo sapiens, UniProt P20309).
T4 construct: purchased Cerep (ExpresSProfile screen, contract service)
The data set can be described thus: Cerep ExpresSProfile receptor screen, M3. The settings on record: data not shown, read-out: % inhibition of ligand binding, M3 muscarinic receptor. The protocol:
as §1

Data set [2] relates to anaphase bridges in BJ-EHLT fibroblasts. Format: cell-based. The note with it: 0.5 μM, 24 hrs.
A further data set has as its target telomerase. Details: method as in PMID 15304549. The settings on record: Trap assay; read-out: telomerase inhibition IC50; cited from earlier work.
Data set [3] relates to human tumor xenografted nude mice. Details: method as in PMID 19010844. The note with it: cited from earlier work.
On the set-up of data set [4]: method as in doi:10.1016/S0040-4020(01)90102-4. The settings on record: cited from earlier work.
For data set [5], the system named is h-Tel quadruplex (Q) DNA, 5'-biotin-d[AG3(T2AG3)3] (DNA, G4) AGGGTTAGGGTTAGGGTTAGGG
Kind of data set: surface plasmon resonance. The settings on record: 200 mM KCl; 10 mM HEPES, 3 mM EDTA, 0.01% P20, pH 7.4. (SPR reads the build-up and loss of mass on a sensor chip optically.)

The test system of data set [6] is h-Tel 5'-d[AGGG(TTAGGG)3]-3' (DNA, G4) AGGGTTAGGGTTAGGGTTAGGG
The data set can be described thus: CD spectroscopy, induced anti-parallel structure. The note with it: no significant K+; 298 K; 3.5 molar equivalents of ligand; band at 290 nm emerges.

The next data set has as its system BJ-hTERT fibroblasts. Kind of data set: Proliferation assay, normal telomerised fibroblasts. Format: cell-based, human. The settings on record: 0.5 μM, culture day 2 to 8. As for the experimental part:
BJ fibroblasts expressing hTERT (BJ-hTERT) or hTERT and SV40 early region (BJ-EHLT), were obtained as previously reported. Cells were grown in Dulbecco Modified Eagle Medium (D-MEM, Invitrogen Carlsbad, CA, USA) supplemented with 10% fetal calf serum, 2 mM L-glutamin and antibiotics.
5 × 10^4 cells were seeded in 60-mm Petri plates (Nunc, MasciaBrunelli, Milano, Italy) and 24 h after plating, 0.5 μM of freshly dissolved compound was added to the culture medium. Cell counts (Coulter Counter, Kontron Instruments, Milano, Italy) and viability (trypan blue dye exclusion) were determined daily, from day 2 to day 8 of culture.

In data set [7] the test system is γH2AX in BJ-EHLT fibroblasts. The data set can be described thus: Immunofluorescence for γH2AX (DNA damage response). The note with it: 0.5 μM, 24 hrs. Format: cell-based, human. The protocol: Cells were fixed in 2% formaldehyde and permeabilized in 0.25% Triton X100 in PBS for 5 min at room temperature. For immunolabeling, cells were incubated with primary antibody, then washed in PBS and incubated with the secondary antibodies. The following primary antibodies were used: pAb and mAb anti-TRF1 (Abcam Ltd.; Cambridge UK); mAb (Upstate, Lake Placid, NY) and pAb anti-γH2AX (Abcam). The following secondary antibody were used: TRITC conjugated Goat anti Rabbit, FITC conjugated Goat anti Mouse (Jackson ImmunoResearch Europe Ltd., Suffolk, UK). Fluorescence signals were recorded by using a Leica DMIRE2 microscope equipped with a Leica DFC 350FX camera and elaborated by a Leica FW4000 deconvolution software (Leica, Solms, Germany). This system permits to focus single planes inside the cell generating 3D high-resolution images. For quantitative analysis of γH2AX positivity, 200 cells on triplicate slices were scored. For TIF’s analysis, in each nucleus a single plane was analyzed and at least 50 nuclei per sample were scored.

The subject of data set [8] is telomere aberrations in BJ-EHLT fibroblasts. The data set can be described thus: Telomere FISH on metaphase spreads. Format: cell-based, human. The note with it: 0.5 μM, 72 hrs. As for the experimental part:
For metaphase chromosome preparation cells were treated with demecolcine (Sigma, Milan, Italy) 0.1 mg/ml for 4 h and then harvested and washed in 75 mM KCl for 5 min at 37°C. After centrifugation cells were fixed in MeOH/acetic acid 3:1 overnight and then spread on slides. Hybridization with rhodamine-coupled PNA was performed as described. For each sample 20 metaphases per slice on triplicate were scored. Images of the metaphases were captured with a 100 × objective.

The subject of a further data set is NCI60 panel. The data set can be described thus: NCI60 panel growth inhibition. Format: cell-based, human.

Usually IC50 stands for the concentration that gives 50% inhibition. One may read the GI50 as the concentration giving 50% growth inhibition.

Some results are limits rather than exact numbers.

T1 sequence (P07550 whole entry): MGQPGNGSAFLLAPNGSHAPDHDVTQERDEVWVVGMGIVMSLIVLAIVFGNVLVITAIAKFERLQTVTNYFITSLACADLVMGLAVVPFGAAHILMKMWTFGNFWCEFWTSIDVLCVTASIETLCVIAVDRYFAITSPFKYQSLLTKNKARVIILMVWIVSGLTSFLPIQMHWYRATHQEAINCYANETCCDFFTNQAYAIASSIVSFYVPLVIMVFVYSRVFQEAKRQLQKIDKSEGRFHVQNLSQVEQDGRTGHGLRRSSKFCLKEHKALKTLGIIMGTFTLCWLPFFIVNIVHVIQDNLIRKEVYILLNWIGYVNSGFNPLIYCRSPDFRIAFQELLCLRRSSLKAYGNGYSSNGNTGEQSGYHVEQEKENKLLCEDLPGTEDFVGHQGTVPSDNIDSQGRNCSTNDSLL
T2 sequence (P11229 whole entry): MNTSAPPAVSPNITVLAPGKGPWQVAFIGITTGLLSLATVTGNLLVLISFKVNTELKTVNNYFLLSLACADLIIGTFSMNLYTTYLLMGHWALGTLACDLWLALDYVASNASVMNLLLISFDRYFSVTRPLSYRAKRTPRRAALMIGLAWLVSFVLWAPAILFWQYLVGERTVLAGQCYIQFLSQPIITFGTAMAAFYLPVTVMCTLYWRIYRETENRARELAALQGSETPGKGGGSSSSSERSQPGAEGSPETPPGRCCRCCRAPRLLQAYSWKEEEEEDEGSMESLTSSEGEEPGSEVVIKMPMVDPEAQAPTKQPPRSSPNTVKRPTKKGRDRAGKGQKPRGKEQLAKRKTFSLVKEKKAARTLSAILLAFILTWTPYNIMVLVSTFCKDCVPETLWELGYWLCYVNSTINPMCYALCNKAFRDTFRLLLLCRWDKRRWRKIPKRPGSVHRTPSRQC
T3 sequence (P08172 whole entry): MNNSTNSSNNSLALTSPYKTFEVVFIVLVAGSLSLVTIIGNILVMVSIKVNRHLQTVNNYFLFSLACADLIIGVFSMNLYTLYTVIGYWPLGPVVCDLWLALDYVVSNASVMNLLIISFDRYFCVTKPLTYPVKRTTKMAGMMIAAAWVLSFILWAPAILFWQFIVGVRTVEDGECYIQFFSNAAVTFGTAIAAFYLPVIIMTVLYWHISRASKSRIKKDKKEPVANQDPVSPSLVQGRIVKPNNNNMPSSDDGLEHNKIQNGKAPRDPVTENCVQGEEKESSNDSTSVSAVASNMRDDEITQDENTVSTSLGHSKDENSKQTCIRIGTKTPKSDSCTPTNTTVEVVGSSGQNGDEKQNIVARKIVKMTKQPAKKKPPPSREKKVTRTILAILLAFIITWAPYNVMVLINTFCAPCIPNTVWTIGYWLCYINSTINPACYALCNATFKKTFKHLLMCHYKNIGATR
T4 sequence (P20309 whole entry): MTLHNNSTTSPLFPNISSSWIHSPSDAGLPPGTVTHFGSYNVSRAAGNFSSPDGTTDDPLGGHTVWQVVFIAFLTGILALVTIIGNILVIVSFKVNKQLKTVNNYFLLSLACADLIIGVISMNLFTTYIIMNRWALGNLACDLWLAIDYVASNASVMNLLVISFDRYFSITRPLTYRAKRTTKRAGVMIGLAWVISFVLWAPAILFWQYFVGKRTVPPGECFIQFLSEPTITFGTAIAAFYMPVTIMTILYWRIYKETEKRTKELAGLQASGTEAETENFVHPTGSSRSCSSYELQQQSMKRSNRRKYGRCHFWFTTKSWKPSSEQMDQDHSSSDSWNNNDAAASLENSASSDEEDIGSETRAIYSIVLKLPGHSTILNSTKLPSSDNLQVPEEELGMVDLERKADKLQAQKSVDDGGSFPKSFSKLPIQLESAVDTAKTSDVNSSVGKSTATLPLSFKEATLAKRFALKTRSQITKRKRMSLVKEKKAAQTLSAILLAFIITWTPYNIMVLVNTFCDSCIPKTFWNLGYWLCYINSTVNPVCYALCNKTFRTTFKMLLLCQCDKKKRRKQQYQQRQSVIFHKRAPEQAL

Take `Cc1cc2c3c([n+](C)c4ccc(F)cc4c3c1)-c1cc(F)ccc1N2C` [Compound 1, 3,11-Difluoro-6,8,13-trimethyl-8H-quino[4,3,2-kl]acridinium metho-sulfate]: the inhibition at 1 µM was over 95% in [1] (1 μM, Cerep ExpresSProfile screen, read-out: % inhibition of ligand binding, β2 adrenergic receptor); over 95% at M1 muscarinic receptor; over 95% at M2 muscarinic receptor; over 95% at M3 muscarinic receptor. Moreover, the inhibition at 10 µM in data set [1] (10 μM, inhibition of control specific binding, CHO cells, read-out: B2 adrenergic % inhib. (10 μM)) worked out at 100%. For the same compound, in data set [2], the “anaphase bridges frequency, fold induction vs untreated” value is “ten”. Further, the IC50 on telomerase is 0.33 µM. For the same compound, the “toxic deaths or body weight loss” value in data set [3] (efficacious doses, during or after treatment) was “no toxic deaths or body weight loss”. In addition, the “histological analysis of organs and tissues” value in data set [3] (end of treatment) was “no evidence of lesions or morphological alterations”. Moreover, in [3] (treated vs control mice, with heart rate and cardiac output decrease), the “haemodynamic effect just after administration” value is “marked but reversible hypotension”. For the same compound, in data set [4], the solubility result was “high solubility”. Also, the K in [5] stood at 8.3e+06 M⁻¹. Also, the binding result in data set [6] was “yes”.
As to `CC(=O)Nc1ccc2c(c1)c1cccc3c1c([n+]2C)-c1ccccc1N3C` [Compound 3, 3-acetylamino-8,13-dimethyl-8H-quino[4,3,2-kl]-acridinium iodide], the “B2 adrenergic % inhib. (10 μM)” value in data set [1] (10 μM, inhibition of control specific binding, CHO cells) came out at 29%. Moreover, the “inhibition of cell proliferation in normal telomerized fibroblasts” value in the data set with BJ-hTERT fibroblasts is reported as “did not induce inhibition of cell proliferation”. Besides, the “percentage of cells positive for γH2AX” value in data set [7] is “less potent than the lead compound”. The “telomere aberrations (telomere doublets, sister telomere fusions)” value in data set [8] is given as “lower effect”. In addition, the GI50 in the data set with NCI60 panel (Homo sapiens, NCI data, read-out: Mean GI50 value from the NCI60 panel) was 81.3 µM. In addition, in the data set on NCI60 panel (several human cancer cell lines), the “effect on cell proliferation in a panel of different histotype tumor cell lines” value is listed as “maintained an anti-proliferative effect”. This compound also had a K in [5] of 8e+06 M⁻¹. Also, the binding result in [6] is “yes”.

Values taken from paper PMC3849007 (Journal of Experimental & Clinical Cancer Research : CR, 2013).
